What was measured:
[1] = parameters: species or system patients; details: human, in vivo, iv
Source text: For example, in a CT application, HU units (Hounsfield Units) measuring signal intensity S(t) are converted to Ultravist 300 concentration units (ml ultravist 300 solution/liter saline). The relationship between the measured signal intensity S(t) in HU and the concentration C(t) of contrast material (in ml per l) is described by: S(t)=p+qC(t) (1) where p and q are parameters to be determined.
Enhancement, E(t), is defined as the difference in signal intensities before and after contrast material injection: E(t)=S(t)−S(t0)=q[C(t)−C(t0)] (2)
The experimental factor that converts HU units to contrast material concentration units can be determined by preparing tubes with different concentrations of Ultravist 300 in normal saline. The tubes can then be scanned by the CT.
For example, for prepared concentrations, C (in ml Ultravist 300 per 1 saline), may be in the range of 0 to 2% (20 ml per l) which is approximately the concentration in the blood after the injection. […] (The dose of 1.5 ml/kg in a 70 kg patient corresponds to ˜20 ml/l, about 2% in blood.)
The contrast agent for the CT was Iopromide (Ultravist 300; Schering) at a dose of 1.5 ml/kg, delivered through the antecubital vein at a rate of 3 ml/sec using an automatic injector (EnVision CT™). The patients were instructed to hold their breath following maximal expiration during the scanning, to decrease movement.
For each patient, the inventors recorded the signal intensity, S, of a central ROI in the aorta before contrast administration and at a selected time point after contrast injection. The inventors in the research study used the relation between HU and concentration units of Ultravist 300 (see above) to convert the measured enhancement to the corresponding concentration in the aorta, Cp(t), assuming similar pharmacokinetics for all patients with normal kidney function. Cp(t) in ml contrast agent per liter blood was fitted to the equation: Cp(t)=D(a1e^−m1^t+a2e^−m2^t) D=dose in ml/kg […] Eq. 3. to obtain: a1=8.48 kg/l, a2=7.34 kg/l, m1=1.43 min^−1, m2=0.1 min^−1.
FIG. 2 illustrates enhancement (as defined in Eq. 2) in the aorta as a function of time after Iopromide (ultravist 300) injection at a dose of 0.15 ml/kg. The decay in the enhancement followed eq. 3 using the concentration to enhancement conversion (equation 2).

[2] = cited from earlier work

- a1 (amplitude of Cp(t)=D(a1e^-m1t+a2e^-m2t)) [1]: 8.48 kg/L
- a2 (amplitude of Cp(t)=D(a1e^-m1t+a2e^-m2t)) [1]: 7.34 kg/L
- m1 (decay rate constant of Cp(t)) [1]: 1.43 min⁻¹
- m2 (decay rate constant of Cp(t)) [1]: 0.1 min⁻¹
SMILES: COCC(=O)Nc1c(I)c(C(=O)NCC(O)CO)c(I)c(C(=O)N(C)CC(O)CO)c1I (stereo not shown) [Iopromide]
- fraction of the dosage excreted in feces ([2]; following IV administration): 1.5%
- half-life of distribution in the extracellular space ([2]; following IV administration): 3 min
- elimination half-life ([2]; patients of normal kidney function, irrespective of the dose): ~2 h

Source: patent US7693320B2, “Three time point lung cancer detection, diagnosis and assessment of prognosis” (Yeda Research and Development Co. Ltd., priority 2004, dated 2010)
